From the METLIN SMRT retention time set (Domingo-Almenara et al. 2019)

Assay: gradient 5% acetonitrile 3 min, to 50% in 2 min, to 85% in 15 min, held 3 min, 100 µL/min
Settings: column: Zorbax Extend-C18 2.1 x 50 mm; eluents: water / acetonitrile, 0.1% formic acid
In short: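 Over 3 months, pure standards in mixtures of ~100 molecules were run by HPLC coupled to a quadrupole time-of-flight mass spectrometer in positive and negative ionization mode. The column was a Zorbax Extend-C18 (2.1 × 50 mm, 1.8 μm) at 100 μL/min, eluted with water and acetonitrile each holding 0.1% formic acid, with 40 μL dead and 900 μL dwell volumes. Retention time was determined from adduct peaks chosen by software and checked manually.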

| RP-LC retention time [s] | Structure (SMILES) |
| --- | --- |
| 700 | CCc1noc(-c2cccnc2N2CCCN(Cc3ccc(F)cc3Cl)CC2)n1 |
| 755 | CCOC(=O)N1CCN(C(=O)C2CC2c2ccc(F)cc2)CC1 (stereo unspecified) |
| 573 | CCNC(=O)c1c2c(nc3ccccc13)CCC2 |
| 592 | COCCNC(=O)CN1CCN(c2cc(C(=O)O)c3cc(NC(=O)c4ccccc4)ccc3n2)CC1 |
| 1250 | CC(C)Cn1cc(S(=O)(=O)N2CCN(c3cccc(Cl)c3)CC2)c2cccnc21 |
| 768 | COc1ccc(NC(=O)N2CCC(n3c(C(F)(F)F)nc4cccnc43)CC2)c(OC)c1 |
| 764 | CCC(=O)N(C1CCOCC1)C1CCN(S(=O)(=O)c2ccccc2)CC1 |
| 690 | O=C(CSc1nc(N2CCCCC2)nc2ccccc12)Nc1ccc2c(c1)OCCO2 |
| 628 | COCCN1C(=O)c2ccccc2C(C(=O)NCCN2CCOCC2)C1c1ccc(F)cc1 (stereo unspecified) |
| 998 | O=C(c1cccs1)N1CCN(S(=O)(=O)c2cc(-c3noc(C4CCC4)n3)cs2)CC1 |
| 693 | Cc1ccc(NC(=O)Cn2cnc3nc(N4CCCC(C(=O)NC5CC5)C4)sc3c2=O)cc1C (stereo unspecified) |
| 796 | Cc1sc(-c2nnc(C3CC3)o2)cc1NC(=O)c1ccnn1C |
| 613 | O=C(CCc1nnc2ccc(NCc3ccccc3Cl)nn12)N1CCN(c2ccccn2)CC1 |
| 702 | COc1cccc(CNC(=O)Nc2cccc(-c3ccc(N4CCCCC4)nn3)c2)c1 |
| 571 | Cc1cc(N2CCCC2)n2nc(CN3CCCC(C)C3)nc2n1 (stereo unspecified) |
| 605 | CCc1nc2cc(N3CCC(C(=O)NCCN4CCCCC4C)CC3)cnc2nc1CC (stereo unspecified) |
| 629 | Cc1ccc(CN2CCC(CNC(=O)c3c(C)oc4nc(C)nc(N5CCOCC5)c34)CC2)cc1 |
| 1310 | Cc1ccc(Sc2nccnc2N2CCCC(C(=O)N3CCN(c4cccc(C)c4)CC3)C2)cc1 (stereo unspecified) |
| 746 | CCc1ccc(C2=C(C)C(N3CCCN(C(=O)NC)CC3)=NS2(=O)=O)cc1 |
| 1150 | COC(=O)c1ccc2c(=O)n(CCc3ccccc3)c(N3CCSCC3)nc2c1 |

Further lines, the compound ahead of its results:

| Structure (SMILES) | RP-LC retention time [s] |
| --- | --- |
| COc1cccc(-c2cc(C(=O)N3CCCC3c3c(C)noc3C)on2)c1 (stereo unspecified) | 872 |
| C=CCn1c(=O)c2ccccc2n(Cc2nc(-c3ccc(Cl)cc3)no2)c1=O | 1130 |
| COCCN1C(=O)[C@H]2CN(Cc3cccnc3)C[C@H]2C1=O | 528 |
| CCC(=O)Nc1ccc2c(c1)Sc1ncccc1C(=O)N2C | 630 |
| Cc1cccc(NC(=O)Cn2c(=O)n(-c3ccc(F)cc3)c3ncccc32)c1 | 876 |
| O=C(COc1ccc(F)cc1)Nc1ccccc1NC(=O)c1ccccc1Cl | 853 |
| Brc1ccc(-c2nc(-c3ccc4nncn4c3)no2)cc1 | 913 |
| COc1ccc(CC2C(=O)Nc3ccc(Cl)cc32)cc1 (stereo unspecified) | 888 |
| O=c1c2cc(-c3ccc(F)cc3)nn2ccn1CC(O)c1ccc(F)cc1 (stereo unspecified) | 859 |
| Cc1cc(NC(=O)C2(C)Oc3cccnc3NC2=O)ccc1F (stereo unspecified) | 739 |
| CCc1ccc(C(=O)Nc2ccc3c(c2)Sc2ncccc2C(=O)N3CC)cc1 | 936 |
| O=C(NCC(=O)N1CC2CN(S(=O)(=O)c3cccc(F)c3)CC(C1)O2)c1ccccc1 | 730 |
| CN(C(=O)Cn1nc(Cc2ccncc2)c2ccccc2c1=O)c1ccc(Br)cc1 | 655 |
| CCc1c(C)nc2nc(-c3ccccc3)nn2c1NCc1ccc(C)cc1 | 996 |
| CSc1ccccc1NC(=O)C(=O)NCC1(c2cccs2)CCCC1 | 1280 |
| CCOC(=O)c1cccc(Nc2c(-c3ccc(OC)c(OC)c3)nc3cnccn23)c1 | 811 |
